Measurements: publication PMC9604066 (International Journal of Molecular Sciences, 2022)
Values after ≈ are worked out from the molar mass of the structure shown.

How the values were obtained:
[1] = system: 17D vaccine strain of YFV; details: cited from earlier work
[2] = system: YFV strain 17D (Stamaril) on Huh-7 cells; assay: microbe, parasite or virus in culture; format: cell-based, yellow fever virus; details: for EC50: Yellow fever virus, Huh-7
in vitro = details: human
yellow fever = details: rhesus monkey, in vivo; cited from earlier work

C[C@@]1(O)[C@H](O)[C@@H](CO)O[C@H]1n1ccc(N)nc1=O [2-C-methylcytidine]
EC90 [1]: 0.32 µg/mL (≈ 1.24 µM)
SI [1]: 141

CN1CC(=O)N(c2ccccc2)C1c1cc2cc(Cc3ccc4oc(C5N(C)CC(=O)N5c5ccccc5)cc4c3)ccc2o1 (stereo not drawn) [2a, (2″R,2‴R)-, (2″S,2‴S)-, and meso-(2″R,2‴S)-5,5′-Methylenebis[2-(N-methyl-3″-phenyl-4″-oxo-1″,3″-imidazolidin-2″-yl)benzofuran]]
logP (physchem): 4.75
EC50 [2]: > 133 µM

Cc1ccc(N2C(=O)CN(C)C2c2cc3cc(Cc4ccc5oc(C6N(C)CC(=O)N6c6ccc(C)cc6)cc5c4)ccc3o2)cc1 (stereo not drawn) [2b, (2″R,2‴R)-, (2″S,2‴S)-, and meso-(2″R,2‴S)-5,5′-Methylenebis(2-[N-methyl-3″-(4-methylphenyl)-4″-oxo-1″,3″-imidazolidin-2″-yl]benzofuran)]
EC50 [2]: > 160 µM

Cc1cccc(N2C(=O)CN(C)C2c2cc3cc(Cc4ccc5oc(C6N(C)CC(=O)N6c6cccc(C)c6C)cc5c4)ccc3o2)c1C (stereo not drawn) [2c, (2″R,2‴R)-, (2″S,2‴S)-, and meso-(2″R,2‴S)-5,5′-Methylenebis(2-[N-methyl-3″-(2,3-dimethylphenyl)-4″-oxo-1″,3″-imidazolidin-2″-yl]benzofuran)]
logP (physchem): 3.77
CC50 (in vitro): 41 µM
EC50 [2]: 6.75 µM

Cc1ccc(C)c(N2C(=O)CN(C)C2c2cc3cc(Cc4ccc5oc(C6N(C)CC(=O)N6c6cc(C)ccc6C)cc5c4)ccc3o2)c1 (stereo not drawn) [2d, (2″R,2‴R)-, (2″S,2‴S)-, and meso-(2″R,2‴S)-5,5′-Methylenebis(2-[N-methyl-3″-(2,5-dimethylphenyl)-4″-oxo-1″,3″-imidazolidin-2″-yl]benzofuran)]
logP (physchem): 4.38
CC50 (in vitro): 18.5 µM
SI [2]: 2.40
EC50 [2]: 7.7 µM

Cc1cc(C)cc(N2C(=O)CN(C)C2c2cc3cc(Cc4ccc5oc(C6N(C)CC(=O)N6c6cc(C)cc(C)c6)cc5c4)ccc3o2)c1 (stereo not drawn) [2e, (2″R,2‴R)-, (2″S,2‴S)-, and meso-(2″R,2‴S)-5,5′-Methylenebis[2-(N-methyl-3″-(3,5-dimethylphenyl)-4″-oxo-1″,3″-imidazolidin-2″-yl)benzofuran]]
logP (physchem): 4.15
CC50 (in vitro): 54.1 µM
EC50 [2]: 3.54 µM

COc1ccc(N2C(=O)CN(C)C2c2cc3cc(Cc4ccc5oc(C6N(C)CC(=O)N6c6ccc(OC)cc6)cc5c4)ccc3o2)cc1 (stereo not drawn) [2g, (2″R,2‴R)-, (2″S,2‴S)-, and meso-(2″R,2‴S)-5,5′-Methylenebis(2-[N-methyl-3″-(4-methoxyphenyl)-4″-oxo-1″,3″-imidazolidin-2″-yl]benzofuran)]
logP (physchem): 4.25
EC50 [2]: > 152 µM

CN1CC(=O)N(c2ccc(F)cc2)C1c1cc2cc(Cc3ccc4oc(C5N(C)CC(=O)N5c5ccc(F)cc5)cc4c3)ccc2o1 (stereo not drawn) [2h, (2″R,2‴R)-, (2″S,2‴S)-, and meso-(2″R,2‴S)-5,5′-Methylenebi(2-[N-methyl-3″-(4-fluorophenyl)-4″-oxo-1″,3″-imidazolidin-2″-yl]benzofuran)]
logP (physchem): 4.6
CC50 (in vitro): 38.5 µM
SI [2]: 1.63
EC50 [2]: 23.5 µM

CN1CC(=O)N(c2ccc(Cl)cc2)C1c1cc2cc(Cc3ccc4oc(C5N(C)CC(=O)N5c5ccc(Cl)cc5)cc4c3)ccc2o1 (stereo not drawn) [2i, (2″R,2‴R)-, (2″S,2‴S)-, and meso-(2″R,2‴S)-5,5′-Methylenebis(2-[N-methyl-3″-(4-chlorophenyl)-4″-oxo-1″,3″-imidazolidin-2″-yl]benzofuran)]
CC50 (in vitro): 12.3 µM
SI [2]: 0.85
EC50 [2]: 14.4 µM

CN1CC(=O)N(c2ccc(Br)cc2)C1c1cc2cc(Cc3ccc4oc(C5N(C)CC(=O)N5c5ccc(Br)cc5)cc4c3)ccc2o1 (stereo not drawn) [2j, (2″R,2‴R)-, (2″S,2‴S)-, and meso-(2″R,2‴S)-5,5′-Methylenebis(2-[N-methyl-3″-(4-bromophenyl)-4″-oxo-1″,3″-imidazolidin-2″-yl]benzofuran)]
EC50 [2]: > 133 µM

CN1CC(=O)N(c2cccc(C(F)(F)F)c2)C1c1cc2cc(Cc3ccc4oc(C5N(C)CC(=O)N5c5cccc(C(F)(F)F)c5)cc4c3)ccc2o1 (stereo not drawn) [2k, (2″R,2‴R)-, (2″S,2‴S)-, and meso-(2″R,2‴S)-5,5′-Methylenebis(2-[N-methyl-3″-(3-trifluoromethyl)phenyl-4″-oxo-1″,3″-imidazolidin-2″-yl]benzofuran)]
logP (physchem): 5.16
CC50 (in vitro): 75 µM
EC50 [2]: 8.89 µM

c1ccc(Cn2c(-c3cc4cc(Cc5ccc6oc(-c7nc8ccccc8n7Cc7ccccc7)cc6c5)ccc4o3)nc3ccccc32)cc1 [3a, 5,5′-Methylenebis[2-(1-benzylbenzimidazol-2-yl)benzofuran]]
EC50 [2]: > 114 µM

Cc1ccc(Cn2c(-c3cc4cc(Cc5ccc6oc(-c7nc8ccccc8n7Cc7ccc(C)cc7)cc6c5)ccc4o3)nc3ccccc32)cc1 [3b, 5,5′-Methylenebis(2-[1-(p-methylbenzyl)benzimidazol-2-yl]benzofuran)]
EC50 [2]: > 145 µM

COc1cccc(Cn2c(-c3cc4cc(Cc5ccc6oc(-c7nc8ccccc8n7Cc7cccc(OC)c7)cc6c5)ccc4o3)nc3ccccc32)c1 [3c, 5,5′-Methylenebis(2-[1-(m-methoxybenzyl)benzimidazol-2-yl]benzofuran)]
EC50 [2]: > 139 µM

COc1ccc(Cn2c(-c3cc4cc(Cc5ccc6oc(-c7nc8ccccc8n7Cc7ccc(OC)cc7)cc6c5)ccc4o3)nc3ccccc32)cc1 [3d, 5,5′-Methylenebis(2-[1-(p-methoxybenzyl)benzimidazol-2-yl]benzofuran)]
EC50 [2]: 27.7 µM

Fc1ccccc1Cn1c(-c2cc3cc(Cc4ccc5oc(-c6nc7ccccc7n6Cc6ccccc6F)cc5c4)ccc3o2)nc2ccccc21 [3e, 5,5′-Methylenebis(2-[1-(o-fluorobenzyl)benzimidazol-2-yl]benzofuran)]
logP (physchem): 4.65
EC50 [2]: > 21.5 µM

Fc1ccc(Cn2c(-c3cc4cc(Cc5ccc6oc(-c7nc8ccccc8n7Cc7ccc(F)cc7)cc6c5)ccc4o3)nc3ccccc32)cc1 [3f, 5,5′-Methylenebis(2-[1-(p-fluorobenzyl)benzimidazol-2-yl]benzofuran)]
EC50 [2]: 28.7 µM

Clc1ccccc1Cn1c(-c2cc3cc(Cc4ccc5oc(-c6nc7ccccc7n6Cc6ccccc6Cl)cc5c4)ccc3o2)nc2ccccc21 [3g, 5,5′-Methylenebis(2-[1-(o-chlorobenzyl)benzimidazol-2-yl]benzofuran)]
EC50 [2]: > 137 µM

Clc1ccc(Cn2c(-c3cc4cc(Cc5ccc6oc(-c7nc8ccccc8n7Cc7ccc(Cl)cc7)cc6c5)ccc4o3)nc3ccccc32)cc1 [3h, 5,5′-Methylenebis(2-[1-(p-chlorobenzyl)benzimidazol-2-yl]benzofuran)]
EC50 [2]: > 103 µM

Brc1cccc(Cn2c(-c3cc4cc(Cc5ccc6oc(-c7nc8ccccc8n7Cc7cccc(Br)c7)cc6c5)ccc4o3)nc3ccccc32)c1 [3i, 5,5′-Methylenebis(2-[1-(m-bromobenzyl)benzimidazol-2-yl]benzofuran)]
EC50 [2]: 91.6 µM

CC(C)n1c(-c2cc3cc(Cc4ccc5oc(-c6nc7ccccc7n6C(C)C)cc5c4)ccc3o2)nc2ccccc21 [3j, 5,5′-Methylenebis[2-(1-isopropylbenzimidazol-2-yl)benzofuran]]
logP (physchem): 3.71
CC50 (in vitro): 69.3 µM
EC50 [2]: 6.14 µM

c1ccc2c(c1)nc(-c1cc3cc(Cc4ccc5oc(-c6nc7ccccc7n6C6CCCC6)cc5c4)ccc3o1)n2C1CCCC1 [3k, 5,5′-Methylenebis[2-(1-cyclopentylbenzimidazol-2-yl)benzofuran]]
EC50 [2]: > 162 µM

c1ccc2c(c1)nc(-c1cc3cc(Cc4ccc5oc(-c6nc7ccccc7n6C6CCCCC6)cc5c4)ccc3o1)n2C1CCCCC1 [3l, 5,5′-Methylenebis[2-(1-cyclohexylbenzimidazol-2-yl)benzofuran]]
EC50 [2]: > 28.7 µM

NC(=O)c1ncn([C@@H]2O[C@H](CO)[C@@H](O)[C@H]2O)n1 [Ribavirin]
survival (yellow fever): lack of improved survival

O=Cc1cc2cc(Cc3ccc4oc(C=O)cc4c3)ccc2o1 [compound 7]
logP (physchem): 3.75
activity towards YFV [2]: did not exhibit any activity
EC50 [2]: > 329 µM

CCOC(=O)c1cc2cc(Cc3ccc4oc(C(=O)OCC)cc4c3)ccc2o1 [compound 10]
activity towards YFV [2]: did not exhibit any activity
EC50 [2]: > 255 µM

O=C(O)c1cc2cc(Cc3ccc4oc(C(=O)O)cc4c3)ccc2o1 [compound 11]
activity towards YFV [2]: did not exhibit any activity
EC50 [2]: > 297 µM
